According to patent publication US10996215B2, “Methods for determining drug efficacy for the treatment of diffuse large B-cell lymphoma, multiple myeloma, and myeloid cancers” (CELGENE CORPORATION, priority 2013, dated 2021):

How the values were obtained:
ZFP91, Aiolos = experiment: Western blot of ZFP91 and Aiolos in OCI-LY10 cells; assay type: cell-based; settings: OCI-LY10, 6 hrs
Excerpt: (§1) Cells were harvested with RIPA buffer, and proteins from cell lysates were separated by 10% sodium dodecyl sulfate polyacrylamide (SDS-PAGE) gel electrophoresis (Bio-Rad), and transferred to PVDF membranes (Invitrogen). Immunoblots were probed with antibodies recognizing Aiolos (9-9-7; Celgene), CK1α(Abcam), GSPT1 (Sigma), ZFP91 (LSBio) and β-actin (Li-Cor). Signals were detected with a Li-Cor Odyssey imager.
Immunoblots were probed with antibodies recognizing Aiolos (9-9-7; Celgene), GSPT1 (Sigma), ZFP91 (LSBio) and β-actin (Li-Cor). Signals were detected with a Li-Cor Odyssey imager.
as §1, with “OCI-LY10 cells treated with DMSO or various drugs for 6 hrs. Cells” for “Cells”, “buffer” for “buffer,”, “recognizing:” for “recognizing”
OCI-LY10 cells were then treated with DMSO or various drugs for 6 hrs. […] Cells were harvested with RIPA buffer and Proteins from cell lysates were separated by 10% sodium dodecyl sulfate polyacrylamide (SDS-PAGE) gel electrophoresis (Bio-Rad), and transferred to PVDF membranes (Invitrogen). Immunoblots were probed with antibodies recognizing: Aiolos (9-9-7; Celgene), ZFP91 (LSBio), ZNF198 (LSBio) and β-actin (Li-Cor). Signals were detected with a Li-Cor™ Odyssey imager.
OCI-LY10 cells stably transduced with shCRBN 11 were induced for 48 hrs with either 0 or 10 ng/ml of doxycycline. […] Where MLN4924 treatments were present, MLN4924 was pre-incubated for 1 hr prior to drug treatment. Cells were harvested with RIPA buffer and Proteins from cell lysates were separated by 10% sodium dodecyl sulfate polyacrylamide (SDS-PAGE) gel electrophoresis (Bio-Rad), and transferred to PVDF membranes (Invitrogen). Immunoblots were probed with antibodies recognizing: CRBN-65, Aiolos (9-9-7; Celgene), Ikaros (Millipore), ZFP91 (LSBio) and β-actin (Li-Cor). Signals were detected with a Li-Cor Odyssey imager.

CSNK1A1 (CK1α), Ikaros = experiment: MG-132, MLN-4924 or Compound A pre-treatment, Western analysis in HNT-34 cells; assay type: cell-based; settings: 10 μM Compound A 1.5 h, 0.3 μM or less lenalidomide, 3 h or 6 h
MDS-L = experiment: 4 d BrdU cell assay / tritiated thymidine, sensitivity; assay type: cell-based; settings: FIG. 22B
Protocol: (§2) Sensitivity to lenalidomide treatment in a panel of myeloid cancer cell lines was evaluated by tritiated thymidine and/or BrdU assays.

HNT-34 = experiment: as above; assay type: cell-based; settings: FIG. 22B
Protocol: as §2

Aiolos, Ikaros = experiment: FFPE IHC for Aiolos and Ikaros in WSU-DLCL2 xenograft tumors; assay type: in vivo; settings: WSU-DLCL2 xenograft SCID mice, 30 mg/kg qd
Protocol: WSU-DLCL2 xenograft SCID mice can be prepared using methods known in the art. In brief, female CB17 severe combined immunodeficiency (SCID) mice (6-12 weeks old) are obtained from the Charles River Laboratory (Wilmington, Mass.) and maintained in microisolator cages under sterile conditions. A total of 10×10^6 WSU-DLCL2 DLBCL cells in 100% Matrigel® (Becton Dickinson, San Jose, Calif.) are injected subcutaneously into the right flank of mice. Mice are monitored 2 or 3 times a week for the appearance of tumors.
WSU-DLCL2 xenograft SCID mice (a human tumor xenograft model) were treated with either vehicle or 30 mg/kg Compound A q.d. Tumor samples were harvested at 1 hour, 6 hours, or 24 hours after the last dose.
Immunohistochemistry was performed using standard methods. For example, immunohistochemistry is performed on the Bond-Max™ automated slide stainer (Leica Microsystems) using the associated Bond™ Polymer Refine Detection Kit. Four micron thick FFPE sections are deparaffinized on the instrument. Antigen retrieval is performed with Epitope Retrieval™ 2 (pH 9.0) for 20 minutes at 100° C. The slides are blocked for endogenous peroxidase activity with Peroxide Block for 5 minutes at room temperature. […]

[1] = system: TMD8 (ABC) or Karpas 422 (GCB) cells; experiment: competition with lenalidomide for CRBN, 3H-thymidine proliferation; assay type: cell-based; settings: TMD8 or Karpas 422; co-treatment with 10 μM lenalidomide; competition of binding to the CRBN complex

Cc1nc2cccc(N)c2c(=O)n1C1CCC(=O)NC1=O (stereo not shown) [Compound A, 3-(5-amino-2-methyl-4-oxo-4H-quinazolin-3-yl)-piperidine-2,6-dione]
levels of ZFP91 and Aiolos (ZFP91, Aiolos; 100 mM thalidomide, 10 mM lenalidomide, 1 mM pomalidomide, 1 μM or 10 μM Compound A, 100 nM Compound B, FIG. 17A): reduced | levels of ZFP91 and Aiolos (ZFP91, Aiolos; 1 or 10 μM lenalidomide, 0.1, 1 or 10 μM Compound A, FIG. 17B): reduced | lenalidomide induced CSNK1A1 degradation after Compound A pre-treatment (CSNK1A1 (CK1α), Ikaros): blocks | sensitivity of MDS-L cells (MDS-L): sensitive | sensitivity of HNT-34 cells (HNT-34): only MDS-L cells were sensitive to Compound A | time to Aiolos and Ikaros degradation in tumor (Aiolos, Ikaros): ≤ 6 h | anti-proliferative effects on co-treatment with lenalidomide [1]: blocks anti-proliferative effects of Compound A
